Data set [1] has as its system human pancreatic cancer cells. Details: method as in PMID 10636070, PMID 7813546. Particulars: cited from earlier work.
Data set [2] in a line: Metabolic stability analysis (radio-HPLC) in PBS at 4 °C or FBS at 37 °C. Type of data set: in vitro ADME. Here is the method:
DOTA-PP-F11N, DOTA-INER-PP-F11N-1, and DOTA-INER-PP-F11N-2 were labeled with In-111 and Lu-177 for further experiments. The detection of free In-111 after ITLC extension was defined as 0% radiolabeling efficiency. […]
To measure the labeling efficiency, ITLC was performed on glass microfiber chromatography paper impregnated with a silica gel (Agilent Technologies, Santa Clara, CA, USA) as described previously. Briefly, the ITLC sheets were developed with 10% methanol as solvent (Rf free Lu-177 = 0, Rf Lu-177-labeled compounds = 1) and measured using a radioactive scanner (AR-2000 radio-TLC […] Imaging Scanner, Bioscan, France). The sample was mixed with acetonitrile at a 1:1 (v/v) ratio, followed by centrifugation at 16,000× g for 5 min. The resulting supernatant was subsequently analyzed using HPLC with UV (220[…]) and radio detector with a Zorbax SB-C18 column (Agilent Technologies, Santa Clara, CA, USA). The flow rate was 0.8 mL/min, with the gradient mobile phase going from 90% A […] buffer (0.1% TFA in water) and 10% B buffer (0.1% TFA in acetonitrile) to 90% B buffer […] within 20 min.

Another data set deals with A431-CCK2R (−) cells. The data set can be described thus: In vitro binding and internalization assay, A431-CCK2R (−) cells. Type of data set: cell-based. Particulars: 37 °C. Here is the method: (§1) In vitro binding and internalization activities were measured using a gamma counter (WIZARD 1480, Perkin-Elmer). Briefly, A431-CCK2R (+) and A431-CCK2R (−) cells were seeded on 24-well plates (1 × 10^5 cells/well, Corning, NY, USA) for 12 h. The plated cells were treated with 30 ± 10 GBq/µmol of [^177Lu]Lu-DOTA-PP-F11N, [^177Lu]Lu-DOTA-INER-PP-F11N-1, or [^177Lu]Lu-DOTA-INER-PP-F11N-2 (1 mL/well) and then incubated at 37 °C for either 1 or 4 h. After incubation, the medium was collected, and the cells were then washed with ice-cold buffer. The medium and washed PBS were collected in tube 0. The washed cells were treated with glycine–HCl buffer (0.1 M, pH 3.0) and incubated for 10 min. After incubation, cells were washed again with glycine–HCl buffer. Both glycine-HCl buffer solutions were collected in tube 1. The washed cells were treated with 1 N NaOH (1 mL/well) and incubated for 10 min for cell lysis. After incubation, the cells were washed once with 1 N NaOH. The cell lysate solution was collected in tube 2. All tubes were analyzed using a gamma counter to detect radioactivity. Data were obtained from at least three independent experiments. The respective formulae for in vitro surface binding activity and internalization were as follows:Surface binding = tube 1/(tube 0 + tube 1 + tube 2) × 100%.Internalization = tube 2/(tube 0 + tube 1 + tube 2) × 100%.

Another data set relates to A431-CCK2R (+) cells. The data set can be described thus: In vitro binding and internalization assay, A431-CCK2R (+) cells. Details: surface binding activity / internalization activity: concentration or dose not given beside the values. Type of data set: cell-based. Particulars: for internalization activity / surface binding activity: A431-CCK2R (+) cells, 37 °C; for enhancement of internalization activity compared with PP-F11N: A431 CCK2R (+) cells, compared with conventional [^177Lu]Lu-DOTA-PP-F11N. Here is the method:
as §1

For data set [3], the system named is A431-CCK2R (−)/A431-CCK2R (+) tumor-bearing mice. The data set can be described thus: NanoSPECT/CT imaging of tumor-bearing mice. Type of data set: in vivo. Here is the method: (§2) To generate A431-CCK2R (+) and A431-CCK2R (−) tumor-bearing mice models, mice (3 per group) were inoculated subcutaneously with 6 × 10^6 cells, which were injected into the inner right back leg for A431-CCK2R (+) tumors and the left back leg for A431-CCK2R (−) tumors, respectively. These xenografts were monitored until the tumor volume reached approximately 200–500 mm^3 [57]. The mice were then randomized to subgroups for further experiments. The formula for calculating tumor volume (V) is V = 4/3πr^3.
The NanoSPECT/CT® plus scanner system (Mediso Medical Imaging Systems; Budapest, Hungary) was utilized to detect in vivo tumors in the in vivo animal models. Both A431-CCK2R (+) and A431-CCK2R (−) cancer cells were inoculated subcutaneously into the inner right leg and left back leg of the mice. Radiopharmaceuticals—[^111In]In-DOTA-PP-F11N, [^111In]In-DOTA-INER-PP-F11N-1, and [^111In]In-DOTA-INER-PP-F11N-2 (1 mCi)—were injected once the mean tumor volume reached approximately 200–500 mm^3. Inhalant (1–2% isoflurane) was used to anesthetize the mice during imaging acquisition. X-ray CT images and SPECT images were taken 4, 24, and 48 h after tail-vein injection. NanoSPECT imaging was acquired using nine multi-pinhole gamma detectors with high-resolution collimators. The energy window was set at 171 and 245 KeV ± 10%, the image size was set at 256 × 256, and the field of view was set at 60 mm × 100 mm.
For Lu-177, only 208 keV photons were used for imaging, with an energy window set at 208 keV ± 10%. Although Lu-177 also emits lower abundance photons at 113 keV, the 208 keV photon provides better image quality due to reduced scatter and higher energy resolution. Therefore, the gamma camera energy windows were specifically tailored to the photon emission profiles of each radionuclide to ensure optimal detection efficiency and image accuracy.
(§3) We investigated therapeutic responses in mice receiving [^177Lu]Lu-DOTA-PP-F11N, [^177Lu]Lu-DOTA-INER-PP-F11N-1, or [^177Lu]Lu-DOTA-INER-PP-F11N-2. A431-CCK2R (+) and A431-CCK2R (−) cells were implanted subcutaneously into the right and left inner hind legs of NOD/SCID mice. Once the tumors reached a volume of 200–500 mm^3, the mice were intravenously injected with either 200 μCi of [^177Lu]Lu-DOTA-PP-F11N, [^177Lu]Lu-DOTA-INER-PP-F11N-1, [^177Lu]Lu-DOTA-INER-PP-F11N-2, or PBS (as a non-radioactive control). The NanoSPECT/CT® plus scanner system (Mediso Medical Imaging Systems; Budapest, Hungary) was utilized to detect and image tumors in the mouse models. Tumor volumes were measured twice a week for 4 weeks.

A short description of data set [4]: Biodistribution study in tumor-bearing mice. Particulars: mouse, intravenous, total radioactivity, 72 h after tail-vein injection, tumor-bearing mice. Type of data set: in vivo. Here is the method:
as §2
(§4) Mice were sacrificed via CO2 asphyxiation 72 h after intravenous injection of 50–100 μCi (50–100 μL) of radiolabeled DOTA-PP-F11N, DOTA-INER-PP-F11N-1, or DOTA-INER-PP-F11N-2 [58]. Tumors and organs of interest were collected for further pathological examinations. The PerkinElmer 2480 Automatic Gamma Counter (PerkinElmer, Waltham, MA, USA) was used to measure radioactivity; the data are presented as the percentage injected dose per gram of tissue (%ID/g).

Data set [5] concerns A431-CCK2R (+) tumors. The data set can be described thus: Biodistribution study in tumor-bearing mice. Type of data set: in vivo. Particulars: biodistribution studies. Here is the method: as §2, §4
In data set [6] the test system is A431-CCK2R (+) tumors. The data set is described as follows: Therapeutic responses to Lu-177-labeled CCK2R analogs in CCK2R-expressing cancer-bearing mice. Format: in vivo. Particulars: 200 μCi intravenously. The protocol:
as §2, §3

A short description of data set [7]: Histopathological examinations (H&E) of mice after radiolabeled drug administration. Type of data set: in vivo. Particulars: light microscopy. The text has this:
To investigate the pathological alterations in tumor-bearing mice receiving radiopharmaceuticals, […] tissues, including tumors, heart, liver, and kidneys, were collected. The specimens were first fixed using 10% buffered neutral formalin and then embedded in paraffin. Sections of 3–5 μm thickness were stained with H&E and examined using light microscopy (40 × and 20 ×).

A further data set deals with CCK2R. Details: method as in PMID 10494457, PMID 10188727. Particulars: cited from earlier work.
Data set [8] has as its system human gastric cancer ascites cells. Details: method as in PMID 10494457, PMID 10188727. Particulars: mouse models inoculated with human gastric cancer ascites cells; cited from earlier work.
For data set [9], the system named is pancreatic tumor PDX models. Details: method as in PMID 34593598. Particulars: cited from earlier work.

The structures appear in SMILES notation. Read-outs that look alike come from different tables or passages of the source. Where a SMILES comes first, the peptide text is derived from it. [ ]: non-standard residue; d: D form. The star is where a group is joined. DOTA = O=C(O)CN1CCN(CC(=O)O)CCN(CC(=O)*)CCN(CC(=O)O)CC1; Butanoyl(4-(4-MePh)) = Cc1ccc(CCCC(=O)*)cc1; 4Amb = NCc1ccc(C(=O)O)cc1; Nle = CCCC[C@H](N)C(=O)O

On to `Cc1cccc(NC(=O)N[C@@H]2N=C(c3ccccc3)c3ccccc3N(C)C2=O)c1` [L-365260], for which the exogenous gastrin-induced proliferation result in [1] is listed as “inhibited”.

On to `CCCC[C@H](NC(=O)[C@H](Cc1c[nH]c2ccccc12)NC(=O)CNC(=O)[C@H](Cc1ccc(O)cc1)NC(=O)[C@H](C)NC(=O)[C@@H](CCC(=O)O)NC(=O)[C@@H](CCC(=O)O)NC(=O)[C@@H](CCC(=O)O)NC(=O)[C@@H](CCC(=O)O)NC(=O)[C@@H](CCC(=O)O)NC(=O)[C@@H](CCC(=O)O)NC(=O)c1ccc(CNC(=O)[C@H](CCCCNC(=O)CCCc2ccc(C)cc2)NC(=O)CN2CCN(CC(=O)O)CCN(CC(=O)O)CCN(CC(=O)O)CC2)cc1)C(=O)N[C@@H](CC(=O)O)C(=O)N[C@@H](Cc1ccccc1)C(N)=O` [[^177Lu]Lu-DOTA-INER-PP-F11N-1, metal not drawn] ({DOTA}-K(Butanoyl(4-(4-MePh)))[4Amb][dE][dE][dE][dE][dE][dE]AYGW[Nle]DF-NH2), for which the metabolic stability result in [2] (4 °C PBS, 144 h after Lu-177 labeling) is reported as “more than 95%”; in [2] (Lu-177-labeled, 37 °C FBS, 144 h), over 99%. Moreover, the internalization activity with A431-CCK2R (−) cells (1 h) was found to be 0.32 ± 0.10 %IA/106 cells; in the data set on A431-CCK2R (−) cells (4 h) it was 0.17 ± 0.03 %IA/106 cells; in the data set with A431-CCK2R (+) cells (1 h), 45.32 ± 6.12%; in the data set with A431-CCK2R (+) cells (4 h) it was 90.49 ± 5.65%. For the same compound, the surface binding activity in the data set on A431-CCK2R (−) cells (1 h) is reported as 1.08 ± 0.49 %IA/106 cells; in the data set on A431-CCK2R (+) cells (1 h), 5.93 ± 1.68%; in the data set with A431-CCK2R (+) cells (4 h), 14.57 ± 4.06%. Moreover, the figures for the “enhancement of internalization activity compared with PP-F11N” value with A431-CCK2R (+) cells and with A431-CCK2R (+) cells (listed as 177Lu-DOTA-INER-PP-F11N-1) were 26.7% and 27%, respectively. Moreover, the “radioactivity within the kidneys on NanoSPECT/CT” value in data set [3] (compared with Lu-177-labeled PP-F11N over the same period) is reported as “significantly lower”. Moreover, the “radiotracer accumulation in the tumor region on NanoSPECT/CT” value in data set [3] (tail-vein injection, Lu-177-labeled) is “avid radiotracer uptake within the tumor”. Besides, the tissue uptake at 72 h was determined as 7.4 ± 2.3 %ID/g in [4] (kidneys, read-out: radiotracer accumulation in the kidneys) and 1.14 ± 0.92 %ID/g in data set [4] (tumor (A431-CCK2R (+)), read-out: tumor uptake of radiopharmaceuticals). Further, the tumor-to-kidney ratio entry in the data set with A431-CCK2R (+) tumors [5] is given as “favorable”. In addition, in the data set with A431-CCK2R (+) tumors [6], the “tumor volume at D23” value is 841.33 ± 165.70 mm^3. The “histopathological changes in the kidneys” value in data set [7] is recorded as “no significant histopathological changes”. Also, in [7], the “histopathological changes in the liver and heart” value is given as “no significant histopathological changes”.

`C[C@](Cc1c[nH]c2ccccc12)(NC(=O)OC1[C@H]2C[C@@H]3C[C@@H](C[C@H]1C3)C2)C(=O)NC[C@H](NC(=O)CCC(=O)O)c1ccccc1` (some centres unmarked) [CI-988]: the “gastrin binding to CCK2R” value with CCK2R is on record as “block gastrin binding to CCK2R”. Also, the survival entry in data set [8] is reported as “improve survival”.

Turning to `Cc1cc(-c2ccc(NC(=O)CCCC(=O)N[C@@H](CCCCNC(=O)CN3CCN(CC(=O)O)CCN(CC(=O)O)CCN(CC(=O)O)CC3)C(=O)N3CCN(CCCOc4ccc5nccc(C(=O)NCC(=O)N6CC(F)(F)C[C@H]6C#N)c5c4)CC3)c(C)c2)ccc1N=Nc1ccc2c(S(=O)(=O)O)cc(S(=O)(=O)O)c(N)c2c1O` [TEFAPI-07], the “tumor uptake and retention” value in data set [9] is “significantly enhanced tumor uptake and retention”.

The values above are taken from article PMC12294753, “Development of INER-PP-F11N as the Peptide-Radionuclide Conjugate Drug Against CCK2 Receptor-Overexpressing Tumors” (International Journal of Molecular Sciences, 2025).
